Assay results: PubChem BioAssay AID248 (DTP/NCI, 2004)
“And” between values parts separate entries of the source, which are not always exact repeats. Equal values may be shown once. Inconclusive results and toxic doses are left out. No stated cut-off is given here; in the data, active means T/C of 150% or more; inactive means T/C below 125%. Square brackets hold non-standard residues; d marks the D form. Peptide text beside a SMILES is read from it. * marks the point of attachment. Cbz = O=C(OCc1ccccc1)*; Sar = CNCC(=O)O

System: L1210 leukemia ip in BDF1 mice, survival T/C
Test: NCI In Vivo Anticancer Drug Screen. Data for tumor model L1210 Leukemia (intraperitoneal) in B6D2F1 (BDF1) mice
Settings: endpoint: mean survival time, higher = longer survival
Summary of the method: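 Value reflects the ratio of survival in compound-treated mice to survival in vehicle-treated controls, with both groups carrying the same transplanted tumor.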

[1] = dose: 100.0 mg/kg/injection, schedule: Q01DX001 (ip), vehicle: saline
[2] = dose: 200.0 mg/kg/injection, schedule: Q01DX001 (ip), vehicle: saline
[3] = dose: 400.0 mg/kg/injection, schedule: Q01DX001 (ip), vehicle: saline
[4] = dose: 100.0 mg/kg/injection, schedule: Q01DX009 (ip), vehicle: saline
[5] = dose: 100.0 mg/kg/injection, schedule: Q04DX003 (ip), vehicle: saline
[6] = dose: 200.0 mg/kg/injection, schedule: Q01DX009 (ip), vehicle: saline
[7] = dose: 200.0 mg/kg/injection, schedule: Q04DX003 (ip), vehicle: saline
[8] = dose: 400.0 mg/kg/injection, schedule: Q04DX003 (ip), vehicle: saline
[9] = dose: 50.0 mg/kg/injection, schedule: Q01DX009 (ip), vehicle: saline
[10] = dose: 100.0 mg/kg/injection, schedule: Q04DX003 (ip), vehicle: Klucel (hydroxypropylcellulose) (HPC)
[11] = dose: 200.0 mg/kg/injection, schedule: Q04DX003 (ip), vehicle: Klucel (hydroxypropylcellulose) (HPC)
[12] = dose: 100.0 mg/kg/injection, schedule: Q01DX009 (ip), vehicle: Klucel (hydroxypropylcellulose) (HPC)
[13] = dose: 200.0 mg/kg/injection, schedule: Q01DX009 (ip), vehicle: Klucel (hydroxypropylcellulose) (HPC)
[14] = dose: 400.0 mg/kg/injection, schedule: Q04DX003 (ip), vehicle: Klucel (hydroxypropylcellulose) (HPC)

Measured: T/C

S=C(Cc1ccc2ccccc2c1)N1CCN(c2ccccc2)CC1
inactive: dose: 100.0 mg/kg/injection, schedule: Q01DX001 (ip), vehicle: olive oil, sesame oil, peanut oil 92 % of control | dose: 100.0 mg/kg/injection, schedule: Q04DX003 (sc), vehicle: olive oil, sesame oil, peanut oil 100 % of control | dose: 200.0 mg/kg/injection, schedule: Q01DX001 (ip), vehicle: olive oil, sesame oil, peanut oil 97 % of control | dose: 200.0 mg/kg/injection, schedule: Q04DX003 (sc), vehicle: olive oil, sesame oil, peanut oil 111 % of control | dose: 400.0 mg/kg/injection, schedule: Q01DX001 (ip), vehicle: olive oil, sesame oil, peanut oil 97 % of control | dose: 400.0 mg/kg/injection, schedule: Q04DX003 (sc), vehicle: olive oil, sesame oil, peanut oil 107 % of control

CCOC(=O)c1[nH]c2c(OCC)nc(OCC)nc2c1Br
inactive: dose: 50.0 mg/kg/injection, schedule: Q01DX001 (ip), vehicle: saline 106 % of control | [1] 112 % of control | [2] 104 % of control | [3] 95 % of control

COC(=O)C(=NO)C(=O)OC
inactive: [4] 98 % of control | [5] 93 % of control | [6] 106 % of control | [7] 95 % of control | dose: 400.0 mg/kg/injection, schedule: Q01DX009 (ip), vehicle: saline 106 % of control | [8] 96 % of control

CC1(C)N=C(SCC(=O)c2ccccc2)NC1(C)C
inactive: dose: 25.0 mg/kg/injection, schedule: Q04DX002 (ip), vehicle: saline 101 % of control | dose: 50.0 mg/kg/injection, schedule: Q04DX002 (ip), vehicle: saline 101 % of control | dose: 100.0 mg/kg/injection, schedule: Q04DX002 (ip), vehicle: saline 101 % of control

O=c1[nH]c2ccsc2c(=O)n1O
inactive: [5] 102 % of control | [7] 97 % of control

OCC1OCC(O)C(O)C1O (stereo not given)
inactive: [9] 94 % of control | [4] 91 % of control | [6] 88 % of control

CC1(C)CC(C(N)=O)C(C)(C)N1O (stereo not given)
inactive: dose: 75.0 mg/kg/injection, schedule: Q01DX009 (ip), vehicle: other 104 % of control | dose: 150.0 mg/kg/injection, schedule: Q01DX009 (ip), vehicle: other 101 % of control | dose: 300.0 mg/kg/injection, schedule: Q01DX009 (ip), vehicle: other 100 % of control

NC(N)=NCCN=C(N)N
inactive: dose: 15.0 mg/kg/injection, schedule: Q01DX Z (oral), vehicle: saline 97 % of control | dose: 30.0 mg/kg/injection, schedule: Q01DX Z (oral), vehicle: saline 103 % of control | dose: 60.0 mg/kg/injection, schedule: Q01DX Z (oral), vehicle: saline 101 % of control | dose: 120.0 mg/kg/injection, schedule: Q01DX Z (oral), vehicle: saline 95 % of control

O=C1C(SCCO)=C(SCCO)C(=O)c2[nH]cnc21
inactive: dose: 5.0 mg/kg/injection, schedule: Q01DX001 (ip), vehicle: carboxymethylcellulose (CMC) 100 % of control | dose: 10.0 mg/kg/injection, schedule: Q01DX001 (ip), vehicle: carboxymethylcellulose (CMC) 101 % of control | dose: 20.0 mg/kg/injection, schedule: Q01DX001 (ip), vehicle: carboxymethylcellulose (CMC) 100 % of control | dose: 40.0 mg/kg/injection, schedule: Q01DX001 (ip), vehicle: carboxymethylcellulose (CMC) 104 % of control

O=C(NCCCl)NNC(=O)c1ccccc1
inactive: [10] 117 % of control | [11] 112 % of control

Nc1ccc(C(=O)NO)cc1
inactive: dose: 62.0 mg/kg/injection, schedule: Q03HX024 (ip), vehicle: saline with Tween-80 101 % of control | [12] 98 % of control | dose: 125.0 mg/kg/injection, schedule: Q03HX024 (ip), vehicle: saline with Tween-80 97 % of control | [13] 98 % of control | dose: 200.0 mg/kg/injection, schedule: Q01DX Z (ip), vehicle: carboxymethylcellulose (CMC) 118 % of control | dose: 200.0 mg/kg/injection, schedule: Q01DX Z (ip), vehicle: saline 117 % of control and 123 % of control | dose: 300.0 mg/kg/injection, schedule: Q01DX Z (ip), vehicle: carboxymethylcellulose (CMC) 115 % of control | dose: 400.0 mg/kg/injection, schedule: Q01DX009 (ip), vehicle: Klucel (hydroxypropylcellulose) (HPC) 108 % of control | dose: 443.0 mg/kg/injection, schedule: Q01DX Z (ip), vehicle: saline 119 % of control | dose: 675.0 mg/kg/injection, schedule: Q01DX Z (ip), vehicle: saline 91 % of control | dose: 800.0 mg/kg/injection, schedule: Q01DX009 (ip), vehicle: Klucel (hydroxypropylcellulose) (HPC) 106 % of control

CN(CC(N)=O)C(=O)CNC(=O)OCc1ccccc1 (Cbz-Gly-[Sar]-NH2)
inactive: [10] 96 % of control | [11] 99 % of control | [14] 97 % of control

CC(=O)CC(=O)Nc1ccc(Cc2ccc(NC(=O)CC(C)=O)c(C)c2)cc1C
inactive: [1] 88 % of control | [2] 94 % of control | [3] 94 % of control

c1ccc2c(CCCc3nccc4ccccc34)nccc2c1
inactive: dose: 100.0 mg/kg/injection, schedule: Q01DX001 (ip), vehicle: Klucel (hydroxypropylcellulose) (HPC) 102 % of control | [10] 108 % of control | dose: 200.0 mg/kg/injection, schedule: Q01DX001 (ip), vehicle: Klucel (hydroxypropylcellulose) (HPC) 104 % of control | [11] 108 % of control | dose: 400.0 mg/kg/injection, schedule: Q01DX001 (ip), vehicle: Klucel (hydroxypropylcellulose) (HPC) 108 % of control | [14] 102 % of control

COC(=O)c1cccc([N+](=O)[O-])c1
inactive: [1] 96 % of control | [2] 94 % of control | [3] 100 % of control

CCOCc1cn(CCCc2ccccc2)c(=O)[nH]c1=O
inactive: dose: 12.5 mg/kg/injection, schedule: Q04DX002 (ip), vehicle: Klucel (hydroxypropylcellulose) (HPC) 106 % of control | dose: 25.0 mg/kg/injection, schedule: Q04DX002 (ip), vehicle: Klucel (hydroxypropylcellulose) (HPC) 102 % of control | dose: 50.0 mg/kg/injection, schedule: Q04DX002 (ip), vehicle: Klucel (hydroxypropylcellulose) (HPC) 106 % of control

CCC(/C=N/NC(N)=O)CC
inactive: [10] 101 % of control | [11] 93 % of control | [14] 96 % of control

CNc1ccccc1Cc1ccccc1
inactive: [12] 96 % of control | [10] 103 % of control | [13] 99 % of control | [11] 93 % of control | [14] 98 % of control

Nc1ccccc1SC(CC(=O)c1ccccc1)c1c(Cl)cccc1Cl (stereo not given)
inactive: dose: 100.0 mg/kg/injection, schedule: Q01DX005 (ip), vehicle: Klucel (hydroxypropylcellulose) (HPC) 94 % of control | dose: 100.0 mg/kg/injection, schedule: Q04DX002 (ip), vehicle: Klucel (hydroxypropylcellulose) (HPC) 110 % of control | dose: 200.0 mg/kg/injection, schedule: Q01DX005 (ip), vehicle: Klucel (hydroxypropylcellulose) (HPC) 108 % of control | dose: 200.0 mg/kg/injection, schedule: Q04DX002 (ip), vehicle: Klucel (hydroxypropylcellulose) (HPC) 95 % of control | dose: 400.0 mg/kg/injection, schedule: Q01DX005 (ip), vehicle: Klucel (hydroxypropylcellulose) (HPC) 94 % of control | dose: 400.0 mg/kg/injection, schedule: Q04DX002 (ip), vehicle: Klucel (hydroxypropylcellulose) (HPC) 95 % of control

CC(=O)N(O)c1ccc(-c2cc3ccccc3[nH]2)cc1
inactive: dose: 100.0 mg/kg/injection, schedule: Q01DX001 (ip), vehicle: carboxymethylcellulose (CMC) 101 % of control | dose: 200.0 mg/kg/injection, schedule: Q01DX001 (ip), vehicle: carboxymethylcellulose (CMC) 93 % of control | dose: 400.0 mg/kg/injection, schedule: Q01DX001 (ip), vehicle: carboxymethylcellulose (CMC) 93 % of control

[N-]=[N+]=NCC(=O)NCc1cnccn1
inactive: dose: 12.5 mg/kg/injection, schedule: Q01DX009 (ip), vehicle: saline 114 % of control | dose: 25.0 mg/kg/injection, schedule: Q01DX009 (ip), vehicle: saline 105 % of control | [9] 112 % of control | [5] 102 % of control | [7] 96 % of control | [8] 96 % of control

C/C=C/S(=O)(=O)c1ccccc1
inactive: dose: 75.0 mg/kg/injection, schedule: Q01DX001 (ip), vehicle: carboxymethylcellulose (CMC) 100 % of control
